The values below come from patent publication US9422267B2, “Fused pyrimidine compounds and use thereof” (Medivation Technologies, Inc., priority 2012, dated 2016).

Molecules are shown by their SMILES. Where two headings read alike, the source gives them in different places.

For one assay, the target named is T1, IR (Homo sapiens, UniProt P06213).
T1 construct: purchased Millipore 14-803
Kind of assay: In vitro IR enzymatic assay (ADP-Glo kinase assay). In kind it is biochemical. Particulars: activated IR; for IC50: read-out: IC50; for inhibition at 0.03 µM: 30 nM. The method, then: (§1) IC50 values of the compounds of the invention against IGF-1R and IR were measured in vitro using an ADP-Glo kinase assay Kit (Promega). […] Kinase reactions in both assays were conducted at 30° C. for 20 min with increasing concentrations of compounds of the invention.
(ADP-Glo turns the ADP formed in a reaction into a luminescent signal.)

The subject of assay [1] is Akt phosphorylation induced by IGF-1R in HT-29 cells. Kind of assay: Western blot analysis of Akt phosphorylation induced by IGF-1R. In kind it is cell-based, Human. The settings on record: then IGF-1 10 ng/mL 10 min, HT-29. The method, then:
Inhibition of Akt phosphorylation induced by IGF-1R was studied by western blot analysis. Human colon carcinoma HT-29 cells were seeded at a density of 8×10^4 cells/well in a 24-well plate and grown in DME/F12 media containing 10% FBS for 24 h. The cells were then depleted of serum by incubation in DME/F12 media lacking FBS for 24 h. […] […] Lysed cells were centrifuged at 13,000 rpm for 15 min and the protein concentration soluble fraction (supernatant) of each sample was determined using a BCA protein assay (Pierce).

Another assay concerns the target IGF1R (Homo sapiens, UniProt P08069). Kind of assay: In vitro IGF-1R enzymatic assay (ADP-Glo kinase assay). In kind it is biochemical. Also on record: purchased Millipore 14-802. The settings on record: activated IGF-1R; for inhibition at 0.03 µM: 30 nM; for IC50: read-out: IC50. The procedure: as §1
Setting [2] is: average, read-out: % Inh @ 30 nM Avg.
Setting [3] is: replicate N1, read-out: % Inh @ 30 nM (N1).
Setting [4] is: replicate N2, read-out: % Inh @ 30 nM (N2).

T1 sequence (P06213 28-1382): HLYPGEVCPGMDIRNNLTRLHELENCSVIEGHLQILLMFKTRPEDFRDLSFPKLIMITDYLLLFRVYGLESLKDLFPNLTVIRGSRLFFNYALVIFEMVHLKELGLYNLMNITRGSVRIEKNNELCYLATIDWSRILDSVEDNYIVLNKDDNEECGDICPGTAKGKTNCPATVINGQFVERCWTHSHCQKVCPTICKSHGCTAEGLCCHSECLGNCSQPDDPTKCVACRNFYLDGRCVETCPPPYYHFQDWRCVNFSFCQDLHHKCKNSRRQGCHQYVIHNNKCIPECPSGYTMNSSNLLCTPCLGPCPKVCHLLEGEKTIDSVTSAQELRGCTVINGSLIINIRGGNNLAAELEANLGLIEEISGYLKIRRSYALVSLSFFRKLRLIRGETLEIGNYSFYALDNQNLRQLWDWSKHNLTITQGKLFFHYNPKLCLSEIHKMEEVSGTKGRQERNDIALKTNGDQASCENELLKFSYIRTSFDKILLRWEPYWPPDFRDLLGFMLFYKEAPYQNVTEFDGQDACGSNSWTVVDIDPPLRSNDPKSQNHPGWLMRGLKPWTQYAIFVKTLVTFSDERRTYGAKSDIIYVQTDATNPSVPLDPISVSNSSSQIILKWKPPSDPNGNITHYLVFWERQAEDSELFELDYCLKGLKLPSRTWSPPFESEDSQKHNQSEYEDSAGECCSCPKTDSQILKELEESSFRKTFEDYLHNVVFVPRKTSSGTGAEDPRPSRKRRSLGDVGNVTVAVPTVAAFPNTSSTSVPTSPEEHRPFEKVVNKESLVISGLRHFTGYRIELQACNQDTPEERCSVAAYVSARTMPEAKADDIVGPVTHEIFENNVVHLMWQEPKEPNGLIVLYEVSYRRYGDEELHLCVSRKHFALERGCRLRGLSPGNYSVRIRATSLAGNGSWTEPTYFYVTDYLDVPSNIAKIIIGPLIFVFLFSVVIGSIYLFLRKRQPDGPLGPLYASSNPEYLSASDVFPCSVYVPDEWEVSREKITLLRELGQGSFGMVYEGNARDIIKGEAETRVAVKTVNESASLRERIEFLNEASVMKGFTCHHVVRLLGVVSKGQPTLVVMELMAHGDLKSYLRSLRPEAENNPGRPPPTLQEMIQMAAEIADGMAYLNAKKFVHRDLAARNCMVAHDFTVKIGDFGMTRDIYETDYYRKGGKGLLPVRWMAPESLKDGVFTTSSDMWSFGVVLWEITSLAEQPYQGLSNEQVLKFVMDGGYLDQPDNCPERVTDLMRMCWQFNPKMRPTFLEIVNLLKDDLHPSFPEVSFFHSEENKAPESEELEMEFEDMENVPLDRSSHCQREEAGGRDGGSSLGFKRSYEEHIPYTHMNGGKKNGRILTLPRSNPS
Sequence of IGF1R (P08069 31-1367): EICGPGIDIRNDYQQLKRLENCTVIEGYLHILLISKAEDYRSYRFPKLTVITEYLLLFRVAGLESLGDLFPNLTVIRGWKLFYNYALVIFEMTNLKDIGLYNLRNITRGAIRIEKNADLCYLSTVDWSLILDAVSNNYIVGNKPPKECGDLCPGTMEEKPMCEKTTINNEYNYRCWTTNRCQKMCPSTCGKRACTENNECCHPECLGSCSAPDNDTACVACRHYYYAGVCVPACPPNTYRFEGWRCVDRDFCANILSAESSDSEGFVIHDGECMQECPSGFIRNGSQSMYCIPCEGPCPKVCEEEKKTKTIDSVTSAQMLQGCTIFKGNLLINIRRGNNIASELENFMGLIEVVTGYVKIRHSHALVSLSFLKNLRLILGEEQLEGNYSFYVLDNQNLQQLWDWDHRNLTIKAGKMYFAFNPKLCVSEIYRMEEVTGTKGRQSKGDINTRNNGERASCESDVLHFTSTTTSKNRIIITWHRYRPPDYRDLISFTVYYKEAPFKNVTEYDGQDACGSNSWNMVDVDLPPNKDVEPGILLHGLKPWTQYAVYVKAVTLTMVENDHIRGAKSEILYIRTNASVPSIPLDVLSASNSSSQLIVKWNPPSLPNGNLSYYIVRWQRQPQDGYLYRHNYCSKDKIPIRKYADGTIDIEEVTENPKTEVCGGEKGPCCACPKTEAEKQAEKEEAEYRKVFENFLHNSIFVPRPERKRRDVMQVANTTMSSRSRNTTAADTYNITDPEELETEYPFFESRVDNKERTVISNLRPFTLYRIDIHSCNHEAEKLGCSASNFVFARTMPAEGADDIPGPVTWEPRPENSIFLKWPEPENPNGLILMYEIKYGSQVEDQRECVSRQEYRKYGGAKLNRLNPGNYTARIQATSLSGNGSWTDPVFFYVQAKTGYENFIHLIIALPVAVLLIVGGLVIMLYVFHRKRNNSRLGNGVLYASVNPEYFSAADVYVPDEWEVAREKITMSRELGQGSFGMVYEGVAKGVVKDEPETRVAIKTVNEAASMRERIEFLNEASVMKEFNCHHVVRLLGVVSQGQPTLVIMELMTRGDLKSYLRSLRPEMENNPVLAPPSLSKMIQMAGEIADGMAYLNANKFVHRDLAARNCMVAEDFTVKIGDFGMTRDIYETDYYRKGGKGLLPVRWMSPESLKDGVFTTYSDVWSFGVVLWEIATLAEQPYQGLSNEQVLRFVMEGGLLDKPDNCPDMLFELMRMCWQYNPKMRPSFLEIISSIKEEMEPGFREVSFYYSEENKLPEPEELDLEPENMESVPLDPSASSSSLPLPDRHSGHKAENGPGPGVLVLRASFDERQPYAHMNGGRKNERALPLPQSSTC

As to `CC(C)c1cc(Nc2nc(N3CCCC3C(=O)Nc3ccncn3)nc3c2CCC3)n[nH]1` (racemic) [Compound 69, 1-(4-(5-isopropyl-1H-pyrazol-3-ylamino)-6,7-dihydro-5H-cyclopenta[d]pyrimidin-2-yl)-N-(pyrimidin-4-yl)pyrrolidine-2-carboxamide], the IC50 on IR is 32 nM.

On to `CC(C)c1cc(Nc2nc(N3CC(O)CC3C(=O)Nc3ccc(F)nc3)nc3c2CCC3)n[nH]1` (racemic) [Compound 70, N-(6-fluoropyridin-3-yl)-4-hydroxy-1-(4-(5-isopropyl-1H-pyrazol-3-ylamino)-6,7-dihydro-5H-cyclopenta[d]pyrimidin-2-yl)pyrrolidine-2-carboxamide], for which the IC50 on IR came out at 22 nM.

As for `O=C(Nc1ccc(F)nc1)C1CCCCN1c1nc2c(c(Nc3cc(C4CC4)[nH]n3)n1)CCC2` (single isomer, unassigned) [Compound 9b, 1-(4-(5-cyclopropyl-1H-pyrazol-3-ylamino)-6,7-dihydro-5H-cyclopenta[d]pyrimidin-2-yl)-N-(6-fluoropyridin-3-yl)piperidine-2-carboxamide], in assay [1] (100 nM compound 2 h), the “phosphorylated AKT levels normalized to actin levels (pAKT/actin)” value came out at 0.78. Besides, the inhibition at 0.03 µM amounted to 6% at IR (setting [2]); 3% on IR (setting [3]); 9% on IR (setting [4]); 16% on IGF1R (setting [2]); 14% on IGF1R (setting [3]); 17% at IGF1R (setting [4]).

As to `O=C(Nc1ccc(F)nc1)C1CCCN1c1nc2c(c(Nc3cc(C4CCCC4)[nH]n3)n1)CCCC2` (single isomer, unassigned) [Compound 15a, 1-(4-(5-cyclopentyl-1H-pyrazol-3-ylamino)-5,6,7,8-tetrahydroquinazolin-2-yl)-N-(6-fluoropyridin-3-yl)pyrrolidine-2-carboxamide], the “phosphorylated AKT levels normalized to actin levels (pAKT/actin)” value in assay [1] (0.1 nM compound 2 h) was determined as 0.70; in assay [1] (1 nM compound 2 h), 0.89; in assay [1] (10 nM compound 2 h), 0.92; in assay [1] (100 nM compound 2 h), 0.59. The results for the inhibition at 0.03 µM on IGF1R (setting [2]), at IGF1R (setting [3]) and on IGF1R (setting [4]) were 19%, 17% and 20%, respectively.

Consider `COC1CC(C(=O)Nc2ccc(F)nc2)N(c2nc3c(c(Nc4cc(C5CC5)[nH]n4)n2)CCC3)C1` (single isomer, unassigned) [Compound 21b], for which the inhibition at 0.03 µM at IR (setting [2]) turned out to be 30%. The IC50 at IR came to 120 nM.

Consider `O=C(Nc1ccc(F)nc1)C1CCCN1c1nc2c(c(Nc3cc(C4CC4)[nH]n3)n1)CCCC2` (single isomer, unassigned) [Compound 14b, 1-(4-(5-cyclopropyl-1H-pyrazol-3-ylamino)-5,6,7,8-tetrahydroquinazolin-2-yl)-N-(6-fluoropyridin-3-yl)pyrrolidine-2-carboxamide], for which the “phosphorylated AKT levels normalized to actin levels (pAKT/actin)” value in assay [1] (0.1 nM compound 2 h) was 0.51; in assay [1] (1 nM compound 2 h) it was 0.49; in assay [1] (10 nM compound 2 h), 0.02; in assay [1] (100 nM compound 2 h), 0.00. In addition, the inhibition at 0.03 µM on IR (setting [2]) is 81%; on IR (setting [3]) it was 82%; at IR (setting [4]), 81%; at IGF1R (setting [2]), 77%; at IGF1R (setting [3]), 77%; at IGF1R (setting [4]), 76%. Also, the values for the IC50 on IR and at IGF1R were 16 nM and 22 nM, respectively.

As to `CC(C)c1cc(Nc2nc(N3CCCC3C(=O)Nc3ccc(F)nc3)nc3c2CC(C)(C)C3)n[nH]1` (racemic) [Compound 50, N-(6-fluoropyridin-3-yl)-1-(4-((5-isopropyl-1H-pyrazol-3-yl)amino)-6,6-dimethyl-6,7-dihydro-5H-cyclopenta[d]pyrimidin-2-yl)pyrrolidine-2-carboxamide], the inhibition at 0.03 µM on IR (setting [2]) is 51%; on IGF1R (setting [2]), 35%. The IC50 on IR worked out at 36 nM.

Regarding `CC(C)c1cc(Nc2nc(N3CC(O)CC3C(=O)Nc3nccs3)nc3c2CCC3)n[nH]1` (racemic) [Compound 71, 4-hydroxy-1-(4-(5-isopropyl-1H-pyrazol-3-ylamino)-6,7-dihydro-5H-cyclopenta[d]pyrimidin-2-yl)-N-(thiazol-2-yl)pyrrolidine-2-carboxamide], on IR, the IC50 was 44 nM.

In the case of `O=C(Nc1ccc(F)nc1)C1CCCCN1c1nc2c(c(Nc3cc(C4CCCC4)[nH]n3)n1)CCC2` (single isomer, unassigned) [Compound 17a, 1-(4-(5-cyclopentyl-1H-pyrazol-3-ylamino)-6,7-dihydro-5H-cyclopenta[d]pyrimidin-2-yl)-N-(6-fluoropyridin-3-yl)piperidine-2-carboxamide], the “phosphorylated AKT levels normalized to actin levels (pAKT/actin)” value in assay [1] (0.1 nM compound 2 h) is 0.89. Besides, the inhibition at 0.03 µM came to 3% on IR (setting [2]); 2% at IR (setting [3]); 5% at IR (setting [4]); 18% on IGF1R (setting [2]); 12% on IGF1R (setting [3]); 24% on IGF1R (setting [4]).

As for `CC(C)c1cc(Nc2nc(N3CCCC3C(=O)Nc3ccc(F)nc3)nc3c2CCCC3)n[nH]1` (single isomer, unassigned) [Compound 13b, N-(6-fluoropyridin-3-yl)-1-(4-(5-isopropyl-1H-pyrazol-3-ylamino)-5,6,7,8-tetrahydroquinazolin-2-yl)pyrrolidine-2-carboxamide], the “phosphorylated AKT levels normalized to actin levels (pAKT/actin)” value in assay [1] (0.1 nM compound 2 h) stood at 0.22; in assay [1] (1 nM compound 2 h), 0.09; in assay [1] (10 nM compound 2 h), 0.00; in assay [1] (100 nM compound 2 h) it was 0.00. In addition, the IC50 on IR came out at 13 nM; on IGF1R it was 17 nM.

Regarding `CC(C)c1cc(Nc2nc(N3CCCC3C(=O)Nc3ccc(N)nc3)nc3c2CCC3)n[nH]1` (racemic) [Compound 72, N-(6-aminopyridin-3-yl)-1-(4-(5-isopropyl-1H-pyrazol-3-ylamino)-6,7-dihydro-5H-cyclopenta[d]pyrimidin-2-yl)pyrrolidine-2-carboxamide], the IC50 at IR was 16 nM.

Regarding `CC(C)c1cc(Nc2nc(N3CCCCC3C(=O)Nc3ccc(F)nc3)nc3c2CCC3)n[nH]1` (single isomer, unassigned) [Compound 16a, N-(6-fluoropyridin-3-yl)-1-(4-(5-isopropyl-1H-pyrazol-3-ylamino)-6,7-dihydro-5H-cyclopenta[d]pyrimidin-2-yl)piperidine-2-carboxamide], the “phosphorylated AKT levels normalized to actin levels (pAKT/actin)” value in assay [1] (0.1 nM compound 2 h) was 0.82; in assay [1] (1 nM compound 2 h) it was 0.62; in assay [1] (10 nM compound 2 h), 0.61; in assay [1] (100 nM compound 2 h), 0.30. For the same compound, the figures for the inhibition at 0.03 µM on IGF1R (setting [2]) and on IGF1R (setting [3]) were 21% and 27%, respectively.

Turning to `CC(C)c1cc(Nc2nc(N3CCCC3C(=O)Nc3nccs3)nc3c2CCC3)n[nH]1` (racemic) [Compound 68, 1-(4-(5-isopropyl-1H-pyrazol-3-ylamino)-6,7-dihydro-5H-cyclopenta[d]pyrimidin-2-yl)-N-(thiazol-2-yl)pyrrolidine-2-carboxamide], the IC50 on IR was 11 nM.

As a reminder, the IC50 is the point on the concentration scale where inhibition reaches its midpoint.
